The text below walks through data of patent US6395905B1, “Tetrahydroindazole derivatives as ligands for GABA-A α 5 receptors” (Merck Sharp & Dohme Ltd., priority 1999, dated 2002).

On to `NCCc1ccc(NC(=O)c2n[nH]c3c2C(=O)CCC3)cc1` [Example 5, 4-Oxo-4,5,6,7-tetrahydro-1H-indazole-3-carboxylic acid 4-(2-aminoethyl)phenylamide], for which the melting point (in general, the temperature of the solid-liquid transition) was 250 °C (dec.).

For `O=C(Nc1ccccc1)c1n[nH]c2c1C(=O)CCC2` [Example 1, 4-Oxo-4,5,6,7-tetrahydro-1H-indazole-3-carboxylic acid phenylamide], the melting point was 244 °C (dec.).

For `O=C(Nc1ccccn1)c1n[nH]c2c1C(=O)CCC2` [Example 3, 4-Oxo-4,5,6,7-tetrahydro-1H-indazole-3-carboxylic acid pyridin-2-ylamide], the melting point was 250 °C (dec.).
